These results are taken from patent US20240209456A1, “METHODS AND COMPOSITIONS RELATED TO CELL-CYCLE RNA's” (BETH ISRAEL DEACONESS MEDICAL CENTER, priority 2021, published 2024).

Each structure is given as a SMILES string.

For the experiment, the system named is acH2A.Z. Briefly: nascent ChIP-qPCR (nasChIP) with acH2A.Z antibody. It counts as cell-based, human. To be noted: for restoration of acH2A.Z at c-MYC locus after DRB reversal: HL-60, 2 hrs after DRB wash-out, MG149 200 μM, TH1834 500 μM; for restoration of acH2A.Z enrichment at PU1 locus after DRB reversal: HL-60, MG149 and TH1834 treatments. The method, then:
To confirm the results of the ChIP-Seq, and to track the deposition of the H2A.Z, acH2A.Z nascent chromatin immunoprecipitation (nasChIP-PCR) was performed with the antibodies to H2A.Z, acH2A.Z and TIP60, as nasChIP-PCR can be used to track histone deposition. Cells were synchronized with a double thymidine block, released into S Phase and treated with DRB for 2 hrs. The medium was supplemented with the EdU DNA analog to enable collection of nascent chromatin DNA (FIG. 4A). […] The results of these experiments provide an important link between the suppressed c-MYC SPEARs expression and the reduced levels of the replacement histone H2A.Z, as an even greater degree of the loss of the acetylated acH2A.Z forms at the TSS of the c-MYC locus. Similar results were obtained for another gene locus, PU1 (FIG. 4F, right panels).
Cells were synchronized with a double thymidine block and released into S Phase with DMSO/DRB added. After 2 hours (during which H2A.Z levels remained unaffected, but SPEARs and mRNA levels drop, see FIG. 10A), cells were washed and then incubated for a further 2 hours with or without the TIP60 inhibitors. This interval is sufficient for the levels of both the c-MYC mRNAs and its SPEARs to be restored when the TIP60 inhibitors are absent (results shown in FIG. 11B). The medium was supplemented with the EU RNA and EdU DNA analogs to enable collection of nascent RNAs and newly formed chromatin that had escaped the drug-induced inhibition of transcription or acetylation. After 2 hours with the TIP60 inhibitors present (MG-149 at 200 μM and TH1834 at 500 μM), during which the levels of acH2A.Z dropped (see FIG. 11A), cells were crosslinked and subjected to nasChIP and nascent RNA expression analyses (nas-qRT-PCR) (FIG. 6B). Collected RNAs were biotinylated by click chemistry, isolated on streptavidin beads and analyzed by nas-qRT-PCR (see “Methods” below for details; FIG. 8A; bottom panel).
To further confirm that SPEARs realize their c-MYC regulatory function directly through the TIP60/acH2A.Z pathway, the differences in chromatin occupancy of H2A.Z, acH2A.Z and TIP60 were assessed after inhibition of transcription (“DRB”), reversal of inhibition (“DRB REV”) and reversal of inhibition in the presence of the two TIP60 inhibitors, using nasChIP-qPCR. […] By analyzing the nascent RNAs and chromatin, only the immediate changes in c-MYC expression and TIP60, acH2A.Z and H2A.Z occupancy were examined within the locus as imposed by the inhibition of transcription and/or acetylation. […] When the two HAT inhibitors are present, the reversal of transcriptional inhibition can only restore the enrichment levels of the unmodified H2A.Z and TIP60 (FIG. 6D; left and right panels), but not the levels of acH2A.Z (middle panel). […] Furthermore, no enrichments of H2A.Z, acH2A.Z or TIP60 was detected within the Gene Desert locus (FIG. 11C). […] Similar results were obtained for the PU.1 locus (FIG. 11D and FIG. 11E). These findings using nasChIP are in line with the general trend obtained globally by ChIP-Seq. (FIG. 4C).
Nascent RNA/DNA capture was performed using Click-iT Nascent RNA Capture Kit (ThermoFisher) according to the manufacturer's instructions with minor modifications. Briefly, 1. Labeling the cells with EU/EdU. 200 mM EU or 30 mM EdU stock solutions were added to the cells, to a final concentration 0.5 mM or 30 μM, respectively. 2. Incubation. The cells were incubated for 1 or 2 hours. 3. RNA/DNA isolation. The cells were harvested and the RNA/DNA were isolated and dissolved in 14 μL of H2O. 4. Biotinylation of RNA/DNA by Click reaction. Click-iT reaction cocktail (50 μL per reaction) was prepared accordingly to manufacturer's instructions: a mixture containing 1× Click-iT EU buffer; 2 mM CuSO4; 1 mM Biotin azide; 13.25 μL of the isolated RNA; 10 mM Click-iT reaction buffer additive 1; 12 mM Click-iT reaction buffer additive 2 was prepared. After adding each component, the reaction cocktail was gently mixed by vortexing. […]
A general note: Real-time PCR tracks product formation cycle by cycle.

With `OC[C@H]1O[C@@H](n2cnc3cc(Cl)c(Cl)cc32)[C@H](O)[C@@H]1O` [DRB, 5,6-Dichlorobenzimidazole 1-β-D-ribofuranoside], the “acH2A.Z enrichment at PU1 locus” value (HL-60, DRB treatment) is reported as “loss”. For the same compound, the “acH2A.Z enrichment at c-MYC locus” value (HL-60 released into S Phase, DRB 2 hrs) was “diminished enrichment and loss”.
Consider `CCCCCCCc1ccc(CCc2cccc(O)c2C(=O)O)cc1` [MG149], for which the “restoration of acH2A.Z at c-MYC locus after DRB reversal” value is “prevents the restoration” and the “restoration of acH2A.Z enrichment at PU1 locus after DRB reversal” value is recorded as “preventing the restoration”.
For `O=C(O)Cn1nnc(-c2ccc(CN(CCCCOc3ccc(CN4CCCC4)cc3)CCc3ccccc3)cc2)n1` [TH1834] the same measures were “prevents the restoration” and “preventing the restoration”.
